Experimental data reported in patent US20040146617A1, “Compositions and methods for suppressing cracking and water loss from cherries” (priority 1998, published 2004).

Test system: cherries
Test: Cherry firmness after cold storage, pre-harvest application
Type: in vivo
Details: after 12 days of cold storage (33° F.); sprayed 2 weeks before harvest; calcium chloride 0.5% w/v, Formulation III 10% (v/v)
Method: 1. Effect of Pre-Harvest Application of Matrix III and Calcium on Firmness. The effect of the Formulation III (Matrix III, see EXAMPLE 15) on cherry firmness was determined in the lab with a firmness meter. Firmness is a function of water content. […] After drying, a 10% (v/v) dilution of Formulation III was applied to half of the trees. […] Increased firmness was also observed in a larger orchard trial with ‘Bing’ and ‘Van’ cherries.

Compound: [Ca+2].[Cl-].[Cl-] [calcium chloride, Calcium chloride]
- firmness: 277.1 mg/mm^2
